Test results published in patent EP1637537A1, “New medicaments” (Riemser Arzneimittel AG, priority 2004, dated 2006).

Key:
Würgereiz = test: Gag reflex inhibition after gag stimulus, clinical study; assay type: in vivo, männlichen und weiblichen gesunden Probanden; conditions: oral 100 mg as Vagantin® film tablet or fresh solution; tested immediately after application and 1, 2 and 6 hours later (Figur 2)
Procedure: (§1) In einer klinischen Studie an 10 männlichen und weiblichen gesunden Probanden im Alter zwischen 20 und 60 Jahren wurde die Ausschaltung bzw. Verzögerung des Würgereizes und der Verminderung des Speichelflusses bei ärztlichen oder zahnärztlichen Manipulationen im Rachenraum geprüft.
(§2) Die obengenannte Filmtablettenformulierung bzw. die dort genannte Lösung von 100 mg Methantheliniumbromid in Wasser als Frischlösung wurde auch hier verwendet.
(§3) Nach Würgereizstimulus wurde die Würgereflexhemmung unmittelbar nach Applikation, sowie im Abstand von 1, 2 und 6 Stunden danach geprüft. Gleichzeitig wurde die Speichelflußrate vor und nach Einnahme von Methantheliniumbromid in Form von Vagantin® gemessen. […] Die Ergebnisse sind in den Figuren. 2 und 3 dargestellt.

Speichelfluß = test: Saliva flow rate before and after intake, clinical study; assay type: in vivo, männlichen und weiblichen gesunden Probanden; conditions: oral 100 mg as Vagantin®; before and after intake (Figur 3)
Procedure: as §1, §2, §3
Figur 3 zeigt die Speichelsekretion in Abhängigkeit von der Methanthelinkonzentration im Plasma nach oraler Gabe von 100 mg Wirkstoff an gesunde Freiwillige. Ferner kann von einem Methanthelinbromidgehalt im Plasma von etwa 5 ng/ml über einen Zweitraum von 8 Stunden ausgegangen werden (Figur 1).

[1] = Serum/plasma concentration-time profile after oral dosing in volunteers; assay type: in vivo, männliche und weiblichen Probanden
Procedure: Die Studie wurde an 12 männliche und weiblichen Probanden im Alter zwischen 18 und 45 Jahren durchgeführt. Der Wirkstoff (Methantheliniumbromid) wurden oral als Filmtablette oder als Lösung appliziert. Zu unterschiedlichen Zeiten nach der Dosierung wurden Messungen vorgenommen und Laborwerte zur Charakterisierung der Wirkung festgestellt.
Im Beispiel wurden 100 mg Wirkstoff als Filmtablette der folgenden Formulierung eingesetzt: • ◆ 50,0 mg Methantheliniumbromid • ◆ 30,0 mg Maisstärke • ◆ 18,75 mg Polyvinylprrolidon • ◆ 4,0 mg hochdisperses Siliziumdioxid • ◆ 146,25 mg Lactosemonohydrat • ◆ 1,0 mg Magnesiumsterarat • ◆ 1,0 mg Hydroxypropylmethylcellulose • ◆ 39,38 mg Talcum • ◆ 6,5 mg Gummi arabicum • ◆ 15,53 mg Calciumcarbonat • ◆ 7,73 mg Titandioxid • ◆ 6,58 mg Weißer Ton • ◆ 0,65 mg Macogol 6000 • ◆ 61,63 mg Saccharose • ◆ 1,0 mg E 100 • ◆ 0,1 mg Carnauba Wachs
Es ist auch möglich, eine reine Lösung von 100 mg Methantheliniumbromid in Wasser als Frischlösung herzustellen. Dabei empfiehlt es sich, den bitteren Geschmack des Wirkstoffes durch angenehme Geschmackskorrigentien zu überdecken. Hier bieten sich z. B. einige Spritzer eines Mundwassers mit Pfefferminzgeschmack an.
Ausdruck dafür ist das in der Figur 1 dargestellte Konzentrations-Zeit-Profil. Zu beachten ist eine deutliche individuelle Schwankungsbreite in der Serumkonzentration nach Zuführung beider Applikationsformen. […]

With `CC[N+](C)(CC)CCOC(=O)C1c2ccccc2Oc2ccccc21.[Br-]` [Methantheliniumbromid, N,N-Diethyl-N-methyl-2-(xanthenylcarbonyloxy)ethylammoniumbromid] the Würgereflexhemmung (Würgereiz) was “deutliche Verzögerung des Würgereizesreflexes”, the Speichelflußrate (Speichelfluß) was “deutliche Reduzierung des Speichelflusses” and the concentration at 8 h ([1]; human, plasma, oral, 100 mg, over a period of 8 hours (Figur 1), read-out: Methanthelinbromidgehalt im Plasma) was ~5 ng/mL. The “Reaktion (Konzentrations-Zeit-Profil, Serumkonzentration)” value ([1]; oral drinking solution compared with film tablet, 100 mg (Figur 1)) was “etwas stärkere Reaktion als die Filmtablette”.
